The test has as its system thrombus-induced mouse model. The test can be described thus: In-vivo antithrombotic test, Rota-rod, collagen/epinephrine thrombus-induced mouse model. Particulars: thrombus induced 90 min after drug, Rota-rod 24 rpm after 15 min. Also on record: species or system ICR mice. Here is the method: As for the experimental animals, 5-week-old female ICR mice provided by YoungBio were stabilized in an animal laboratory at a temperature of 24±1° C., a humidity of 55±5% in a 12-hour day-night cycle for 1 week and used in the experiments.
The change in behavioral capacity was evaluated for the prepared thrombus-induced mouse model using Rota-rod, and the antithrombotic effect of the Angelica gigas Nakai extract was evaluated. The thrombus-induced mouse model was prepared as follows. A 6-week-old ICR mouse (about 20 to 25 g) stabilized as an experimental mouse was prepared, and subjected to Rota-rod training, and the reference value was created three times, and the rotation speed was set to 24 rpm, and objects withstanding without falling at a rotation speed of 300 or more were selected. […] After 15 minutes, Rota-rod testing was repeated 3 times (rotation speed: 24 rpm), and the difference in athletic performance was analyzed by the following Equation: Protection rate (%)=[(Total number of individuals−Number of killed or paralyzed individuals)/Total number of individuals]×100
Number of killed or paralyzed individuals: The number of individuals who fell at a rotation speed of 24 rpm or less in Rota-rod testing at a rotation speed of 150 or less)
In general terms: In the rotarod test animals must keep their balance on a rotating rod.

`CC(=O)Oc1ccccc1C(=O)O` [ASA (Aspirin), acetylsalicylic acid]: under “dose 100 mg/kg”, the “Number of killed or paralyzed individuals / Number of total individuals” value is 11/20 and the “Protection (%)” value came out at 45%.

In the case of `CC(C)=CC(=O)O[C@H]1Cc2cc3ccc(=O)oc3cc2OC1(C)C` [Decursin, decursin], where the note is “dose 10 mg/kg”, the “Number of killed or paralyzed individuals / Number of total individuals” value is reported as 11/18 and the “Protection (%)” value came out at 38.9%.

`CC1(C)Oc2cc3oc(=O)ccc3cc2C[C@@H]1O` [Decursinol, decursinol]: where the note is “dose 10 mg/kg”, the “Number of killed or paralyzed individuals / Number of total individuals” value is on record as 12/19 and the “Protection (%)” value amounted to 36.8%.

Source of the values: patent US11446347B2, “Antithrombotic composition comprising Angelica gigas Nakai extract” (Astrogenesis Co., Ltd., priority 2018, dated 2022).
